Results reported in ChEMBL document CHEMBL3751674, “Synthesis, antimicrobial activity of Schiff base compounds of cinnamaldehyde and amino acids” (2016).

What was measured:
Assay type in all cases: functional
Settings in all cases: read-out: DIZ
Aspergillus niger [1] = test: Antifungal activity against Aspergillus niger at 0.25 mol/L after 2 to 4 days by paper disc method
Aspergillus niger [2] = test: Antifungal activity against Aspergillus niger at 0.13 mol/L after 2 to 4 days by paper disc method
Aspergillus niger [3] = test: Antifungal activity against Aspergillus niger at 0.06 mol/L after 2 to 4 days by paper disc method
Aspergillus niger [4] = test: Antifungal activity against Aspergillus niger at 0.03 mol/L after 2 to 4 days by paper disc method
Penicillium citrinum [5] = test: Antifungal activity against Penicillium citrinum at 0.25 mol/L after 2 to 4 days by paper disc method
Penicillium citrinum [6] = test: Antifungal activity against Penicillium citrinum at 0.13 mol/L after 2 to 4 days by paper disc method
Penicillium citrinum [7] = test: Antifungal activity against Penicillium citrinum at 0.06 mol/L after 2 to 4 days by paper disc method
Penicillium citrinum [8] = test: Antifungal activity against Penicillium citrinum at 0.03 mol/L after 2 to 4 days by paper disc method
Escherichia coli [9] = test: Antibacterial activity against Escherichia coli at 0.25 mol/L after 12 to 24 hrs by paper disc method
Escherichia coli [10] = test: Antibacterial activity against Escherichia coli at 0.13 mol/L after 12 to 24 hrs by paper disc method
Escherichia coli [11] = test: Antibacterial activity against Escherichia coli at 0.06 mol/L after 12 to 24 hrs by paper disc method
Escherichia coli [12] = test: Antibacterial activity against Escherichia coli at 0.03 mol/L after 12 to 24 hrs by paper disc method
Staphylococcus aureus [13] = test: Antibacterial activity against Staphylococcus aureus at 0.25 mol/L after 12 to 24 hrs by paper disc method
Staphylococcus aureus [14] = test: Antibacterial activity against Staphylococcus aureus at 0.13 mol/L after 12 to 24 hrs by paper disc method
Staphylococcus aureus [15] = test: Antibacterial activity against Staphylococcus aureus at 0.06 mol/L after 12 to 24 hrs by paper disc method
Staphylococcus aureus [16] = test: Antibacterial activity against Staphylococcus aureus at 0.03 mol/L after 12 to 24 hrs by paper disc method

With `CC(/N=C/C=C/c1ccccc1)C(=O)O` (stereo unspecified) the zone of inhibition at 250000 µM (Aspergillus niger [1]) was 9.7 mm, the zone of inhibition at 130000 µM (Aspergillus niger [2]) was 8.3 mm and the zone of inhibition at 60000 µM (Aspergillus niger [3]) was 8 mm. It also gave a zone of inhibition at 30000 µM (Aspergillus niger [4]) of 8 mm, a zone of inhibition at 250000 µM (Penicillium citrinum [5]) of 8 mm and a zone of inhibition at 130000 µM (Penicillium citrinum [6]) of 10.3 mm. It also gave a zone of inhibition at 60000 µM (Penicillium citrinum [7]) of 9.3 mm, a zone of inhibition at 30000 µM (Penicillium citrinum [8]) of 12.3 mm and a zone of inhibition at 250000 µM (Escherichia coli [9]) of 11 mm. For the same compound, the zone of inhibition at 130000 µM (Escherichia coli [10]) was 8 mm, the zone of inhibition at 60000 µM (Escherichia coli [11]) was 8 mm and the zone of inhibition at 30000 µM (Escherichia coli [12]) was 8 mm. For the same compound, the zone of inhibition at 250000 µM (Staphylococcus aureus [13]) was 8 mm, the zone of inhibition at 130000 µM (Staphylococcus aureus [14]) was 8 mm and the zone of inhibition at 60000 µM (Staphylococcus aureus [15]) was 8 mm. The zone of inhibition at 30000 µM (Staphylococcus aureus [16]) was 8 mm.

With `O=C(O)C[C@H](/N=C/C=C/c1ccc(Cl)cc1)C(=O)O` the zone of inhibition at 250000 µM (Aspergillus niger [1]) was 29 mm, the zone of inhibition at 130000 µM (Aspergillus niger [2]) was 15.7 mm and the zone of inhibition at 60000 µM (Aspergillus niger [3]) was 19.3 mm. The zone of inhibition at 30000 µM (Aspergillus niger [4]) was 14.3 mm, the zone of inhibition at 250000 µM (Penicillium citrinum [5]) was 32.3 mm and the zone of inhibition at 130000 µM (Penicillium citrinum [6]) was 23.3 mm. For the same compound, the zone of inhibition at 60000 µM (Penicillium citrinum [7]) was 25 mm, the zone of inhibition at 30000 µM (Penicillium citrinum [8]) was 24.5 mm and the zone of inhibition at 250000 µM (Escherichia coli [9]) was 25.2 mm. The zone of inhibition at 130000 µM (Escherichia coli [10]) was 12 mm, the zone of inhibition at 60000 µM (Escherichia coli [11]) was 13 mm and the zone of inhibition at 30000 µM (Escherichia coli [12]) was 8 mm. It also gave a zone of inhibition at 250000 µM (Staphylococcus aureus [13]) of 30.3 mm, a zone of inhibition at 130000 µM (Staphylococcus aureus [14]) of 18.3 mm and a zone of inhibition at 60000 µM (Staphylococcus aureus [15]) of 8.5 mm. The zone of inhibition at 30000 µM (Staphylococcus aureus [16]) was 9.2 mm.

For `COc1ccc(/C=C/C=N/C(C)C(=O)O)cc1` (stereo unspecified), the zone of inhibition at 250000 µM (Aspergillus niger [1]) was 15.8 mm, the zone of inhibition at 130000 µM (Aspergillus niger [2]) was 10.5 mm and the zone of inhibition at 60000 µM (Aspergillus niger [3]) was 12.7 mm. It also gave a zone of inhibition at 30000 µM (Aspergillus niger [4]) of 8 mm, a zone of inhibition at 250000 µM (Penicillium citrinum [5]) of 17.7 mm and a zone of inhibition at 130000 µM (Penicillium citrinum [6]) of 9.8 mm. For the same compound, the zone of inhibition at 60000 µM (Penicillium citrinum [7]) was 13.3 mm, the zone of inhibition at 30000 µM (Penicillium citrinum [8]) was 9 mm and the zone of inhibition at 250000 µM (Escherichia coli [9]) was 16.3 mm. It also gave a zone of inhibition at 130000 µM (Escherichia coli [10]) of 8 mm, a zone of inhibition at 60000 µM (Escherichia coli [11]) of 10 mm and a zone of inhibition at 30000 µM (Escherichia coli [12]) of 8 mm. The zone of inhibition at 250000 µM (Staphylococcus aureus [13]) was 12.7 mm, the zone of inhibition at 130000 µM (Staphylococcus aureus [14]) was 8.7 mm and the zone of inhibition at 60000 µM (Staphylococcus aureus [15]) was 8 mm. For the same compound, the zone of inhibition at 30000 µM (Staphylococcus aureus [16]) was 8 mm.

`COc1ccc(/C=C/C=N/[C@@H](CC(=O)O)C(=O)O)cc1` showed a zone of inhibition at 250000 µM (Aspergillus niger [1]) of 16.3 mm, a zone of inhibition at 130000 µM (Aspergillus niger [2]) of 22.5 mm and a zone of inhibition at 60000 µM (Aspergillus niger [3]) of 11.2 mm. For the same compound, the zone of inhibition at 30000 µM (Aspergillus niger [4]) was 8 mm, the zone of inhibition at 250000 µM (Penicillium citrinum [5]) was 34.3 mm and the zone of inhibition at 130000 µM (Penicillium citrinum [6]) was 23.7 mm. For the same compound, the zone of inhibition at 60000 µM (Penicillium citrinum [7]) was 12.8 mm, the zone of inhibition at 30000 µM (Penicillium citrinum [8]) was 8 mm and the zone of inhibition at 250000 µM (Escherichia coli [9]) was 9.5 mm. The zone of inhibition at 130000 µM (Escherichia coli [10]) was 10 mm, the zone of inhibition at 60000 µM (Escherichia coli [11]) was 10 mm and the zone of inhibition at 30000 µM (Escherichia coli [12]) was 10.3 mm. For the same compound, the zone of inhibition at 250000 µM (Staphylococcus aureus [13]) was 8 mm, the zone of inhibition at 130000 µM (Staphylococcus aureus [14]) was 10.2 mm and the zone of inhibition at 60000 µM (Staphylococcus aureus [15]) was 8.3 mm. It also gave a zone of inhibition at 30000 µM (Staphylococcus aureus [16]) of 8 mm.

Work on `O=C(O)C[C@H](/N=C/C=C/c1ccccc1)C(=O)O` yielded a zone of inhibition at 250000 µM (Aspergillus niger [1]) of 29.7 mm, a zone of inhibition at 130000 µM (Aspergillus niger [2]) of 24 mm and a zone of inhibition at 60000 µM (Aspergillus niger [3]) of 19.3 mm. For the same compound, the zone of inhibition at 30000 µM (Aspergillus niger [4]) was 12.7 mm, the zone of inhibition at 250000 µM (Penicillium citrinum [5]) was 40.7 mm and the zone of inhibition at 130000 µM (Penicillium citrinum [6]) was 28 mm. For the same compound, the zone of inhibition at 60000 µM (Penicillium citrinum [7]) was 14.8 mm, the zone of inhibition at 30000 µM (Penicillium citrinum [8]) was 10.3 mm and the zone of inhibition at 250000 µM (Escherichia coli [9]) was 25 mm. It also gave a zone of inhibition at 130000 µM (Escherichia coli [10]) of 17.3 mm, a zone of inhibition at 60000 µM (Escherichia coli [11]) of 12 mm and a zone of inhibition at 30000 µM (Escherichia coli [12]) of 8 mm. For the same compound, the zone of inhibition at 250000 µM (Staphylococcus aureus [13]) was 18 mm, the zone of inhibition at 130000 µM (Staphylococcus aureus [14]) was 8 mm and the zone of inhibition at 60000 µM (Staphylococcus aureus [15]) was 8 mm. It also gave a zone of inhibition at 30000 µM (Staphylococcus aureus [16]) of 8 mm.

With `O=C(O)C/N=C/C=C/c1ccc(Cl)cc1` the zone of inhibition at 250000 µM (Aspergillus niger [1]) was 23.7 mm, the zone of inhibition at 130000 µM (Aspergillus niger [2]) was 23 mm and the zone of inhibition at 60000 µM (Aspergillus niger [3]) was 21.7 mm. For the same compound, the zone of inhibition at 30000 µM (Aspergillus niger [4]) was 12 mm, the zone of inhibition at 250000 µM (Penicillium citrinum [5]) was 25 mm and the zone of inhibition at 130000 µM (Penicillium citrinum [6]) was 21.7 mm. For the same compound, the zone of inhibition at 60000 µM (Penicillium citrinum [7]) was 20.3 mm, the zone of inhibition at 30000 µM (Penicillium citrinum [8]) was 16.3 mm and the zone of inhibition at 250000 µM (Escherichia coli [9]) was 22.8 mm. For the same compound, the zone of inhibition at 130000 µM (Escherichia coli [10]) was 18.2 mm, the zone of inhibition at 60000 µM (Escherichia coli [11]) was 21.7 mm and the zone of inhibition at 30000 µM (Escherichia coli [12]) was 19.3 mm. The zone of inhibition at 250000 µM (Staphylococcus aureus [13]) was 22.2 mm, the zone of inhibition at 130000 µM (Staphylococcus aureus [14]) was 9.7 mm and the zone of inhibition at 60000 µM (Staphylococcus aureus [15]) was 8 mm. For the same compound, the zone of inhibition at 30000 µM (Staphylococcus aureus [16]) was 12.3 mm.
